Test results published in patent publication US9216187B2, “Soyasapogenol composition” (J-OIL MILLS, INC., priority 2011, dated 2015).

Test: Evaluation of absorption of soyasapogenol composition, blood soyasapogenol B at 1 to 12 hours and AUC (Examples 3 to 4)
Format: in vivo
Settings: rat, plasma, oral, male SD rats, single dose with feeding needle, 100 μmol/kg body weight in terms of saponin aglycone
Method: To each of the obtained plasma, 0.2 M Na acetate buffer solution (pH 5.5) in an amount same as that of the plasma was added. Subsequently, 3000 units of β-glucuronidase (product name: H-2, product of Sigma-Aldrich, Co. LLC) were added, and an enzyme reaction was allowed at 37° C. for 12 hours. After termination of the reaction, 3 ml of a mixture liquid of methanol:acetonitrile (1:1) and internal standard formononetin (product of Sigma-Aldrich, Co. LLC) were added to the enzyme treatment solution, followed by centrifugation, and then a supernatant was collected. An operation of adding 3 ml of the mixture liquid of methanol:acetonitrile (1:1) to a residue and performing centrifugation was repeated twice, and a supernatant was collected after each of the operations. The collected supernatants were mixed and subjected to drying under reduced pressure using a rotary evaporator.
8-week-old male SD rats (Charles River Laboratories Japan, Inc.) were divided into groups so that one group consists of 4 rats, and each of the compositions of Examples 3 and 4 and Comparative Example 1 was suspended into a 0.5% CMC solution, followed by a single dose administration of the suspension in an equivalent amount (100 μmol/kg body weight) in terms of saponin aglycone to each of the rats with a feeding needle. Blood sampling was conducted at 1, 3, 8 and 12 hours after the administration, and plasma was obtained from each of the blood samples. Each of the obtained plasma was subjected to the pre-treatment and the HPLC-MS analysis in the same manner as in Example 1 to examine the soyasapogenol B concentration in the blood. The blood soyasapogenol B concentration at 1 to 12 hours after the administration and AUCs (areas under curve of the blood concentration) are shown in Table 3.

SMILES: CC1(C)C[C@@H](O)[C@]2(C)CC[C@]3(C)C(=CC[C@@H]4[C@@]5(C)CC[C@H](O)[C@](C)(CO)[C@@H]5CC[C@]43C)[C@@H]2C1 [Comp. Ex. 1, soyasapogenol B]
- AUC (100 umol/kg, 1 to 12 hours, read-out: AUC (area under curve of the blood soyasapogenol B concentration)): 2910 ng·h/mL
- concentration at 1 h (1 hour, read-out: Blood Soyasapogenol B Concentration 1 hour after): 317 ng/mL
- concentration at 3 h (3 hours, read-out: Blood Soyasapogenol B Concentration 3 hours after): 280 ng/mL
- concentration at 8 h (8 hours, read-out: Blood Soyasapogenol B Concentration 8 hours after): 293 ng/mL
- concentration at 12 h (12 hours, read-out: Blood Soyasapogenol B Concentration 12 hours after): 68.1 ng/mL
